Results published in US7488832B2, “Azolylacylguanidines as β-secretase inhibitors” (Wyeth, priority 2005, dated 2009).
pIC50: −log10 of the molar value.

The compounds below were run against human BACE1 (Homo sapiens, UniProt P56817) (assay: Fluorescent kinetic assay, human BACE1 (FRET peptide substrate WABC-6)). Settings: not given.
Assay type: biochemical
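Also: fluorescence monitored at excitation 320 nm and emission 420 nm over 30 min, with the substrate cleavage rate taken as the linear slope of the signal.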

human BACE1, sequence (P56817 46-501): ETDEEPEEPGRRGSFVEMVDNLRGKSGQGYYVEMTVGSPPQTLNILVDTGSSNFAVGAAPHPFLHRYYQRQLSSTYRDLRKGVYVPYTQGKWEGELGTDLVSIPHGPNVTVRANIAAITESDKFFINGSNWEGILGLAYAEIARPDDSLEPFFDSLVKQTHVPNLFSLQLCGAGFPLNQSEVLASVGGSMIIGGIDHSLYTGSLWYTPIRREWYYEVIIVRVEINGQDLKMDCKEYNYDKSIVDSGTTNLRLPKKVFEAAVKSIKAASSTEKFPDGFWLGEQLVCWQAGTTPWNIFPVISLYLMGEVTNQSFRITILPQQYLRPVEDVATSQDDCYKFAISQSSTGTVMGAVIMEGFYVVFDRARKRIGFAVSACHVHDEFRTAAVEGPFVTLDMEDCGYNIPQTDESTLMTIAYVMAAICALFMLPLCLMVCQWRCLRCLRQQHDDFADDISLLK

pIC50 | Compound
6.00 to 6.96 | N/C(=N/C(=O)Cn1c(-c2ccccc2)ccc1C12CC3CC(CC(C3)C1)C2)NCCCO [Example 395]
6.00 to 6.96 | N=C(NCc1cccc(N)c1)NC(=O)Cn1c(-c2ccccc2)ccc1C12CC3CC(CC(C3)C1)C2 [Example 421]

Same assay, conditions: fluorescent kinetic assay, 25 μM substrate WABC-6, pH 4.5, room temperature; read-out: IC50 (μM) BACE 1

IC50 [µM] | Compound
1.1 to 5 | Cc1ccc(-c2ccc(-c3ccc(Cl)s3)n2CC(=O)N=C(N)N)cc1 [Example 110]
1.1 to 5 | COc1ccc(OC)c(-c2ccc(-c3ccc(Oc4ccccc4)cc3)n2CC(=O)N=C(N)N)c1 [Example 133]
0.11 to 1 | COc1ccc(OC)c(-c2ccc(-c3ccc(Oc4ccc(C(C)=O)cc4)cc3)n2CC(=O)N=C(N)N)c1 [Example 135]
1.1 to 5 | COc1cccc(-c2ccc(-c3ccc4ccccc4c3)n2CC(=O)N=C(N)N)c1 [Example 147]
1.1 to 5 | NC(N)=NC(=O)Cn1c(-c2ccccc2)ccc1-c1ccc(C(=O)N2CCSC2)cc1 [Example 169]
1.1 to 5 | CC1CCN(C(=O)c2ccc(-c3ccc(-c4ccccc4)n3CC(=O)N=C(N)N)cc2)CC1 [Example 170]
1.1 to 5 | Cc1cccc(C(=O)Nc2ccc(-c3ccc(-c4ccccc4)n3CC(=O)N=C(N)N)cc2)c1 [Example 236]
1.1 to 5 | NC(N)=NC(=O)Cn1c(-c2ccccc2)ccc1-c1ccc(NC(=O)COc2ccccc2)cc1 [Example 242]
1.1 to 5 | NC(N)=NC(=O)Cn1c(-c2ccccc2)ccc1-c1ccc(NS(=O)(=O)c2ccc(Cl)s2)cc1 [Example 258]
1.1 to 5 | C=CCCOc1ccc(-c2ccc(-c3ccccc3)n2CC(=O)N=C(N)N)cc1 [Example 273]
1.1 to 5 | CC[C@H](C)COc1ccc(-c2ccc(-c3ccccc3)n2CC(=O)N=C(N)N)cc1 [Example 283]
0.11 to 1 | NC(=NC(=O)Cn1c(-c2ccc(Oc3ccccc3)cc2)ccc1-c1ccccc1Cl)NCCCO [Example 310]
0.11 to 1 | C=CCCCOc1ccc(-c2ccc(-c3ccccc3Cl)n2CC(=O)NC(=N)NCCCO)cc1 [Example 313]
0.01 to 0.1 | N#CCCCCOc1ccc(-c2ccc(-c3ccccc3Cl)n2CC(=O)N=C(N)NCCCO)cc1 [Example 314]
0.11 to 1 | C=CCCCCOc1ccc(-c2ccc(-c3ccccc3Cl)n2CC(=O)N=C(N)NCCCO)cc1 [Example 315]
0.11 to 1 | N/C(=N/C(=O)Cn1c(-c2ccc(OCCC3OCCO3)cc2)ccc1-c1ccccc1Cl)NCCCO [Example 316]
0.11 to 1 | CCCCCOc1ccc(-c2ccc(-c3ccccc3Cl)n2CC(=O)/N=C(/N)NCCCO)cc1 [Example 317]
1.1 to 5 | N#Cc1ccc(-c2ccc(-c3ccccc3)n2CC(=O)N=C(N)NCCCO)cc1 [Example 318]
0.11 to 1 | CC(C)c1ccc(-c2ccc(-c3ccccc3)n2CC(=O)N=C(N)NCCCO)cc1 [Example 319]
0.11 to 1 | CCCc1ccc(-c2ccc(-c3ccccc3)n2CC(=O)N=C(N)NCCCO)cc1 [Example 320]
0.11 to 1 | CCCCc1ccc(-c2ccc(-c3ccccc3)n2CC(=O)N=C(N)NCCCO)cc1 [Example 321]
0.11 to 1 | CC(C)Cc1ccc(-c2ccc(-c3ccccc3)n2CC(=O)N=C(N)NCCCO)cc1 [Example 322]
0.11 to 1 | CCCCCc1ccc(-c2ccc(-c3ccccc3)n2CC(=O)N=C(N)NCCCO)cc1 [Example 323]
0.11 to 1 | CCCCOc1ccc(-c2ccc(-c3ccccc3)n2CC(=O)N=C(N)NCCCO)cc1 [Example 324]

IC50 [µM] | Compound
0.11 to 1 | NC(=NC(=O)Cn1c(-c2ccccc2)ccc1-c1ccc(-c2ccccc2)cc1)NCCCO [Example 325]
0.11 to 1 | NC(=NC(=O)Cn1c(-c2ccccc2)ccc1-c1ccc(C2CCCCC2)cc1)NCCCO [Example 327]
0.11 to 1 | NC(=NC(=O)Cn1c(-c2ccccc2)ccc1-c1ccc(Oc2ccccc2)cc1)NCCCO [Example 328]
0.11 to 1 | CC(=O)c1ccc(Oc2ccc(-c3ccc(-c4ccccc4)n3CC(=O)N=C(N)NCCCO)cc2)cc1 [Example 329]
1.1 to 5 | N#Cc1ccc(-c2ccc(-c3ccccc3)n2CC(=O)N=C(N)NCc2ccc(F)c(F)c2F)cc1 [Example 330]
1.1 to 5 | CC(C)c1ccc(-c2ccc(-c3ccccc3)n2CC(=O)N=C(N)NCc2ccc(F)c(F)c2F)cc1 [Example 331]
0.11 to 1 | CCCc1ccc(-c2ccc(-c3ccccc3)n2CC(=O)N=C(N)NCc2ccc(F)c(F)c2F)cc1 [Example 332]
0.11 to 1 | CCCCc1ccc(-c2ccc(-c3ccccc3)n2CC(=O)N=C(N)NCc2ccc(F)c(F)c2F)cc1 [Example 333]
0.11 to 1 | CCCCOc1ccc(-c2ccc(-c3ccccc3)n2CC(=O)N=C(N)NCc2ccc(F)c(F)c2F)cc1 [Example 334]
0.11 to 1 | NC(=NC(=O)Cn1c(-c2ccccc2)ccc1-c1ccc(C2CCCCC2)cc1)NCc1ccc(F)c(F)c1F [Example 336]
0.11 to 1 | NC(=NC(=O)Cn1c(-c2ccccc2)ccc1-c1ccc(Oc2ccccc2)cc1)NCc1ccc(F)c(F)c1F [Example 337]
1.1 to 5 | CC(=O)c1ccc(Oc2ccc(-c3ccc(-c4ccccc4)n3CC(=O)N=C(N)NCc3ccc(F)c(F)c3F)cc2)cc1 [Example 338]
0.11 to 1 | CCN/C(N)=N\C(=O)Cn1c(-c2ccccc2)ccc1C12CC3CC(CC(C3)C1)C2 [Example 390]
0.11 to 1 | CCCN/C(N)=N\C(=O)Cn1c(-c2ccccc2)ccc1C12CC3CC(CC(C3)C1)C2 [Example 391]
1.1 to 5 | CCCCCN/C(N)=N\C(=O)Cn1c(-c2ccccc2)ccc1C12CC3CC(CC(C3)C1)C2 [Example 392]
0.11 to 1 | N#CCCCNC(=N)NC(=O)Cn1c(-c2ccccc2)ccc1C12CC3CC(CC(C3)C1)C2 [Example 393]
0.11 to 1 | CC(=O)OCCNC(N)=NC(=O)Cn1c(-c2ccccc2)ccc1C12CC3CC(CC(C3)C1)C2 [Example 394]
0.11 to 1 | N/C(=N/C(=O)Cn1c(-c2ccccc2)ccc1C12CC3CC(CC(C3)C1)C2)NCCO [Example 396, 2-[2-(1-adamantyl)-5-phenyl-1H-pyrrol-1-yl]-N-{(1E)-amino[(2-hydroxyethyl)-amino]methylene}acetamide]
0.11 to 1 | N#CCCN/C(N)=N\C(=O)Cn1c(-c2ccccc2)ccc1C12CC3CC(CC(C3)C1)C2 [Example 397]
0.11 to 1 | N/C(=N\C(=O)Cn1c(-c2ccccc2)ccc1C12CC3CC(CC(C3)C1)C2)NCCCCO [Example 400, 2-[2-(1-Adamantyl)-5-phenyl-1H-pyrrol-1-yl]-N-{(1E)-amino[(4-hydroxybutyl)amino]-methylene}acetamide]
1.1 to 5 | NC(=NC(=O)Cn1c(-c2ccccc2)ccc1C12CC3CC(CC(C3)C1)C2)NCc1ccco1 [Example 401]
0.11 to 1 | NC(=NC(=O)Cn1c(-c2ccccc2)ccc1C12CC3CC(CC(C3)C1)C2)NCC1CCCO1 (stereo not shown) [Example 402]
0.11 to 1 | CC(O)CNC(N)=NC(=O)Cn1c(-c2ccccc2)ccc1C12CC3CC(CC(C3)C1)C2 (stereo not shown) [Example 404]
0.11 to 1 | CC(O)CNC(N)=NC(=O)Cn1c(-c2ccccc2)ccc1C12CC3CC(CC(C3)C1)C2 (stereo not shown) [Example 405]

IC50 [µM] | Compound
0.11 to 1 | N=C(NCC(O)CO)NC(=O)Cn1c(-c2ccccc2)ccc1C12CC3CC(CC(C3)C1)C2 (stereo not shown) [Example 406]
1.1 to 5 | CC(C)CNC(N)=NC(=O)Cn1c(-c2ccccc2)ccc1C12CC3CC(CC(C3)C1)C2 [Example 407]
0.11 to 1 | NC(=NC(=O)Cn1c(-c2ccccc2)ccc1C12CC3CC(CC(C3)C1)C2)NCC(F)(F)F [Example 408]
1.1 to 5 | CCOC(=O)CCCNC(N)=NC(=O)Cn1c(-c2ccccc2)ccc1C12CC3CC(CC(C3)C1)C2 [Example 409]
1.1 to 5 | N=C(NCCCn1ccnc1)NC(=O)Cn1c(-c2ccccc2)ccc1C12CC3CC(CC(C3)C1)C2 [Example 413]
0.11 to 1 | COCCCNC(N)=NC(=O)Cn1c(-c2ccccc2)ccc1C12CC3CC(CC(C3)C1)C2 [Example 414]
0.11 to 1 | COCCNC(N)=NC(=O)Cn1c(-c2ccccc2)ccc1C12CC3CC(CC(C3)C1)C2 [Example 415]
0.11 to 1 | NC(=NC(=O)Cn1c(-c2ccccc2)ccc1C12CC3CC(CC(C3)C1)C2)NCC(F)(F)C(F)(F)F [Example 416]
0.11 to 1 | NC(=NC(=O)Cn1c(-c2ccccc2)ccc1C12CC3CC(CC(C3)C1)C2)NC1CCCCCC1 [Example 417]
0.11 to 1 | C=CCNC(=O)c1ccc(-c2ccc(-c3ccccc3)n2CC(=O)N=C(N)NCc2nnc(C)o2)cc1 [Example 423]
0.11 to 1 | C=CCNC(=O)c1ccc(-c2ccc(-c3ccccc3)n2CC(=O)N=C(N)NCc2nc(C)cs2)cc1 [Example 424]
0.11 to 1 | C=CCNC(=O)c1ccc(-c2ccc(-c3ccccc3)n2CC(=O)N=C(N)NCCc2cccs2)cc1 [Example 425]
0.11 to 1 | C=CCNC(=O)c1ccc(-c2ccc(-c3ccccc3)n2CC(=O)N=C(N)NCc2cccc(N)c2)cc1 [Example 426]
0.11 to 1 | CCS(=O)(=O)N/C(N)=N\C(=O)Cn1c(-c2ccccc2)ccc1C12CC3CC(CC(C3)C1)C2 [Example 431, 2-[2-(1-adamantyl)-5-phenyl-1H-pyrrol-1-yl]-N-{(1Z)-amino[(ethyl-sulfonyl)amino]methylene}acetamide]
1.1 to 5 | CCC(=O)c1ccc(-c2ccc(-c3ccccc3)n2CC(=O)NC(=N)N)cc1 [Example 447]
0.11 to 1 | CCCCc1ccc(-c2ccc(-c3ccccc3)n2CC(=O)NC(=N)N)cc1 [Example 449]
0.11 to 1 | Cc1ccc(C)c(-c2ccc(-c3ccccc3)n2CC(=O)NC(=N)N)c1 [Example 450]
1.1 to 5 | N#CCc1ccc(-c2ccc(-c3ccccc3)n2CC(=O)NC(=N)N)cc1 [Example 451]
1.1 to 5 | N=C(N)NC(=O)Cn1c(-c2ccccc2)ccc1-c1ccccc1C(F)(F)F [Example 452]
1.1 to 5 | N#CCc1cccc(-c2ccc(-c3ccccc3)n2CC(=O)NC(=N)N)c1 [Example 453]
1.1 to 5 | N#CCCc1ccc(-c2ccc(-c3ccccc3)n2CC(=O)NC(=N)N)cc1 [Example 454]
0.11 to 1 | CCNC(=O)c1ccc(-c2ccc(-c3ccccc3)n2CC(=O)NC(N)=NCCCO)cc1 [Example 461, N-Ethyl-4-(1-{2-[N′-(3-hydroxy-propyl)-guanidino]-2-oxo-ethyl}-5-phenyl-1H-pyrrol-2-yl)-benzamide]

Compound | IC50 [µM]
4-n-propyl-piperidine [Example 185] | 1.1 to 5
